Assay results reported in patent publication US7115608B2, “Pyridinone and pyridinethione derivatives having HIV inhibiting properties” (Centre National de la Recherche Schentifique, priority 2000, dated 2006).
Where two headings read alike, the source gives them in different places.

How the values were obtained:
[1] = tested on: HIV-1; conditions: for SI: selectivity index, ratio of CC50 to IC50
Description: (§1) A rapid, sensitive and automated assay procedure was used for the in vitro evaluation of anti-HIV agents. […] Inhibition of the HIV-induced cytopathic effect was used as the end point. The viability of both HIV- and mock-infected cells was assessed spectrophotometrically via the in situ reduction of 3-(4,5-dimethylthiazol-2-yl)-2,5-diphenyltetrazolium bromide (MTT). […] The percent protection achieved by the compound in HIV-infected cells was calculated by the following formula:
(§2) [formula] expressed in %, whereby (ODT)HIV is the optical density measured with a given concentration of the test compound in HIV-infected cells; (ODC)HIV is the optical density measured for the control untreated HIV-infected cells; (ODC)MOCK is the optical density measured for the control untreated mock-infected cells; all optical density values were determined at 540 nm. […] The ratio of CC50 to IC50 was defined as the selectivity index (SI).

[2] = tested on: HIV-1; assay: microbe, parasite or virus in culture; conditions: Human immunodeficiency virus 1, MT4
Description: as §1, §2

[3] = Cytotoxicity in mock-infected MT-4 cells (MTT); assay type: cell-based; conditions: human, mock-infected MT-4 cells, concentration reducing absorbance of mock-infected MT-4 control by 50%
[4] = tested on: mock-infected MT-4 cells; assay: Cytotoxicity in mock-infected MT-4 cells (MTT); assay type: cell-based; conditions: concentration reducing absorbance of mock-infected MT-4 control by 50%

| SMILES | SI [1] | IC50 [2] | CC50 [3] | melting point | IC50 ([1]; dose achieving 50% protection of HIV-infected MT-4 cells, MTT, OD 540 nm) | CC50 [4] |
| --- | --- | --- | --- | --- | --- | --- |
| Cc1cc(C)cc(Sc2c(CN3CCOCC3)c(C)[nH]c(=O)c2I)c1 [compound 43, 4-[(3,5-dimethylphenyl)-thio]-3-iodo-6-methyl-5-morpholinomethyl-1H-pyridin-2-one] | 10000 | 1 nM | 10000 nM |  |  |  |
| CCSCc1c(C)[nH]c(=O)c(I)c1Sc1cc(C)cc(C)c1 [compound 45] | >31623 | 3.2 nM | > 100000 nM |  |  |  |
| Cc1cc(C)cc(Sc2c(CO)c(C)[nH]c(=O)c2I)c1 [compound 61] |  |  |  | 240 °C |  |  |
| CCOCc1c(C)[nH]c(=O)c(Br)c1Sc1cc(C)cc(C)c1 [compound 85] | >31623 | 3.2 nM | > 100000 nM | 183 to 184 °C |  |  |
| CCOCc1c(C)[nH]c(=O)c(I)c1Sc1cc(C)cc(C)c1 [compound 86] | >31623 | 3.2 nM | > 100000 nM | 220 to 222 °C |  |  |
| CCc1c(C)[nH]c(=O)c(I)c1[S+]([O-])c1cc(C)cc(C)c1 (stereo not drawn) [compound 108] | 19953 | 2.5 nM | 50000 nM |  |  |  |
| Cc1cc(C)cc(Oc2c(CCl)c(C)[nH]c(=O)c2I)c1 [compound 125, 5-(chloromethyl)-4-(3,5-dimethylphenoxy)-3-iodo-6-methyl-2(1H)-pyridinone] |  |  |  | 256 to 258 °C |  |  |
| CCc1c(CO)[nH]c(=O)c(I)c1Oc1cc(C)cc(C)c1 [compound 133, 4-(3,5-dimethylphenoxy)-5-ethyl-6-(hydroxymethyl)-3-iodo-2(1H)-pyridinone] | >6310 | 1.6 nM | > 10000 nM |  |  |  |
| CCc1c(C=O)[nH]c(=O)c(I)c1Oc1cc(C)cc(C)c1 [compound 159, 4-(3,5-dimethylphenoxy)-3-ethyl-1,6-dihydro-5-iodo-6-oxo-2-pyridinecarboxaldehyde] |  |  |  | 158 °C |  |  |
| CCc1c(C)[nH]c(=O)c(CC)c1Oc1cc(C)cc(C)c1 [compound 231, 4-(3,5-dimethylphenoxy)-3,5-diethyl-6-methyl-2(1H)-pyridinone] | 3162 | 3.2 nM | 10000 nM |  |  |  |
| C=Cc1c(Oc2cc(C)cc(C)c2)c(CC)c(C)[nH]c1=O [compound 234, 4-(3,5-dimethylphenoxy)-3-ethenyl-5-ethyl-6-methyl-2(1H)-pyridinone] | 5012 | 2 nM | 10000 nM |  |  |  |
| CCOCc1c(C)[nH]c(=O)c(I)c1Oc1cc(C)cc(C)c1 [compound 255, 4-(3,5-dimethylphenoxy)-5-(ethoxymethyl)-3-iodo-6-methyl-2(1H)-pyridinone] | >15849 | 0.6 nM | > 10000 nM | 234 to 236 °C |  |  |
| Cc1cc(C)cc(Oc2c(CO)c(C)[nH]c(=O)c2I)c1 [compound 257, 4-(3,5-dimethylphenoxy)-5-(hydroxymethyl)-3-iodo-6-methyl-2(1H)-pyridinone] | >6310 | 5 nM | > 32000 nM |  |  |  |
| CCc1c(C)[nH]c(=O)c(I)c1Oc1cc(I)cc(CC#N)c1 [compound 426, [3-(5-ethyl-3-iodo-6-methyl-2-oxo-1,2-dihydro-pyridin-4-yloxy)-5-iodo-phenyl]-acetonitrile] | 39811 | 1.6 nM | 63000 nM |  |  |  |
| CCc1c(C)[nH]c(=O)c(I)c1Oc1cc(Br)cc(/C=C/C#N)c1 [compound 470] | 12589 | 1 nM | 13000 nM |  |  |  |
| Cc1cc(C)cc(Oc2c(CSCc3csc(C)n3)c(C)[nH]c(=O)c2I)c1 [compound 483, 4-(3,5-dimethylphenoxy)-3-iodo-6-methyl-5-[2-methylthiazol-4-ylmethylsulfanylmethyl)-1H-pyridin-2-one] | >100000 | 1 nM | > 100000 nM |  |  |  |
| Cc1cc(C)cc(Oc2c(CCCc3ccccc3)c(C)[nH]c(=O)c2I)c1 [compound 547, 4-(3,5-dimethylphenoxy)-3-iodo-6-methyl-5-(3-phenyl-propyl)-1H-pyridin-2-one] | >15849 | 6.3 nM | > 100000 nM |  |  |  |
| Cc1cc(C)cc(Oc2c(Cn3ccnn3)c(C)[nH]c(=O)c2I)c1 [compound 713] | >39811 |  |  |  | 2.5 nM | > 100000 nM |
